# In US10233173B2, “Substituted 1,2,3-triazoles as NR2B-selective NMDA modulators” (JANSSEN PHARMACEUTICA NV, priority 2016, dated 2019):
# Biological target: human GluN1/GluN2B NMDA receptors (Homo sapiens, UniProt Q05586+Q13224)
# Experiment: Cell-based calcium flux (FLIPR) assay on cloned human NR1/NR2B ion channels expressed in mammalian cells
# Conditions: standard assay; glutamate at ~EC80; FLIPR calcium flux
# Summary of the method: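 Calcium influx followed by FLIPR fluorescence after 5 min compound exposure and a further 5 min co-agonist challenge: 10 μM glycine with glutamate at ~EC80 (standard) or EC40 (HTS).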
# Chain of human GluN1/GluN2B NMDA receptors (Q13224 27-1484, other chains not shown): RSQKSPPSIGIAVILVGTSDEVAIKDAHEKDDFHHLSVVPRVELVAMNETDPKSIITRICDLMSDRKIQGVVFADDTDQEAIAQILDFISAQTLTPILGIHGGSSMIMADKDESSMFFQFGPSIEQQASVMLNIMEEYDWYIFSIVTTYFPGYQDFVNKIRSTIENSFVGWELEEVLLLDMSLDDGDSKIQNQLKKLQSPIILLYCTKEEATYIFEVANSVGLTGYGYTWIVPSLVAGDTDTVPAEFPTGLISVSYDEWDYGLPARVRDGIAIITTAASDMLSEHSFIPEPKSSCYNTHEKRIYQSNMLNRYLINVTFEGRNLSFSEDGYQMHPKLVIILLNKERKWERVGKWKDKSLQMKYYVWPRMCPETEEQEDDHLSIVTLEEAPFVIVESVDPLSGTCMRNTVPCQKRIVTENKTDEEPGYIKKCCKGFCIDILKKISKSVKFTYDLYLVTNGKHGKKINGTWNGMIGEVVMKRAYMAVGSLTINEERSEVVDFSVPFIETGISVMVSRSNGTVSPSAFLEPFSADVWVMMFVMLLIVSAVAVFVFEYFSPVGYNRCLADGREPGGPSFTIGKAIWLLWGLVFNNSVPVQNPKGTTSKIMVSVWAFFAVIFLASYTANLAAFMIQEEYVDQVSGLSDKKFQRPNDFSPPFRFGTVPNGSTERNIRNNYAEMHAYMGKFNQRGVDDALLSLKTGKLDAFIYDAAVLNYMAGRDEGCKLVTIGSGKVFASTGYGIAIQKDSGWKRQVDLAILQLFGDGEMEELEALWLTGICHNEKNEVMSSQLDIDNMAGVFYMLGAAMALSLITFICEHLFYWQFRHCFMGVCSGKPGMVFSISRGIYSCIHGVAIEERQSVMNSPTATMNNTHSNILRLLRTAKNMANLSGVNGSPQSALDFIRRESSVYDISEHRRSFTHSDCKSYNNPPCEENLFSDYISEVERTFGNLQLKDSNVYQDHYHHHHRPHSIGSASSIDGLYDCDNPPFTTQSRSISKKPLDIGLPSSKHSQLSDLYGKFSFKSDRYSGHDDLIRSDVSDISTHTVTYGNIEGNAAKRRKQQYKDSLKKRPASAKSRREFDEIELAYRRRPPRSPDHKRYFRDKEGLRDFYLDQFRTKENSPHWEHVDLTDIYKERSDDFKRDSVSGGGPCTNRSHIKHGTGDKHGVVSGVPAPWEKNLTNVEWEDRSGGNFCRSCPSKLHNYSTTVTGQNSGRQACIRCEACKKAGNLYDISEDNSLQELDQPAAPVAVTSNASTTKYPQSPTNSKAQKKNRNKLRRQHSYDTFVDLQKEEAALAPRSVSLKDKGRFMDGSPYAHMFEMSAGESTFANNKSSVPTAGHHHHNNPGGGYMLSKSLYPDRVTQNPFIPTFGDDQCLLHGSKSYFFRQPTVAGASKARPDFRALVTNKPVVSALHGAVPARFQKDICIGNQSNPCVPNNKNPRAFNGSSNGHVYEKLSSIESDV
row,Compound,IC50 [µM]
1,"CC(F)(F)c1cc(-n2cc(COc3ncc(S(C)(=O)=O)cn3)nn2)ccc1F [Example 584, 2-[[1-[3-(1,1-Difluoroethyl)-4-fluoro-phenyl]triazol-4-yl]methoxy]-5-methylsulfonyl-pyrimidine]",0.199
2,"CC(=O)c1cnc(OCc2cn(-c3ccc(F)c(C(C)(F)F)c3)nn2)nc1 [Example 585, 1-[2-[[1-[3-(1,1-Difluoroethyl)-4-fluoro-phenyl]triazol-4-yl]methoxy]pyrimidin-5-yl]ethanone]",0.011
3,"CC(F)(F)c1cc(-n2cc(COc3ncc(C4CC4)cn3)nn2)ccc1F [Example 587, 5-Cyclopropyl-2-[[1-[3-(1,1-difluoroethyl)-4-fluoro-phenyl]triazol-4-yl]methoxy]pyrimidine]",0.041
4,"CC(F)(F)c1cc(-n2cc(COc3ncc(N4CCC4)cn3)nn2)ccc1F [Example 588, 5-(Azetidin-1-yl)-2-[[1-[3-(1,1-difluoroethyl)-4-fluoro-phenyl]triazol-4-yl]methoxy]pyrimidine]",0.034
5,"CC(F)(F)c1cc(-n2cc(COc3ncc(N4CC(F)C4)cn3)nn2)ccc1F [Example 589, 2-((1-(3-(1,1-Difluoroethyl)-4-fluorophenyl)-1H-1,2,3-triazol-4-yl)methoxy)-5-(3-fluoroazetidin-1-yl)pyrimidine]",0.013
6,"CN(C)c1cnc(OCc2cn(-c3ccc(F)c(C(C)(F)F)c3)nn2)nc1 [Example 590, 2-((1-(3-(1,1-Difluoroethyl)-4-fluorophenyl)-1H-1,2,3-triazol-4-yl)methoxy)-N,N-dimethylpyrimidin-5-amine]",0.039
7,"CC(F)(F)c1cc(-n2cc(COc3nccc(N4CCCC4)n3)nn2)ccc1F [Example 591, 2-[[1-[3-(1,1-Difluoroethyl)-4-fluoro-phenyl]triazol-4-yl]methoxy]-4-pyrrolidin-1-yl-pyrimidine]",0.016
8,"CC(F)(F)c1cc(-n2cc(COc3nccc(N4CCCCC4)n3)nn2)ccc1F [Example 592, 2-[[1-[3-(1,1-Difluoroethyl)-4-fluoro-phenyl]triazol-4-yl]methoxy]-4-(1-piperidyl)pyrimidine]",0.271
9,"CCc1cnc(OCc2nnn(-c3ccc(F)c(C(C)(F)F)c3)c2C)nc1 [Example 593, 2-[[1-[3-(1,1-Difluoroethyl)-4-fluoro-phenyl]-5-methyl-triazol-4-yl]methoxy]-5-ethyl-pyrimidine]",0.486
10,"Cc1c(COc2ncc(C3CC3)cn2)nnn1-c1ccc(F)c(C(C)(F)F)c1 [Example 594, 5-Cyclopropyl-2-[[1-[3-(1,1-difluoroethyl)-4-fluoro-phenyl]-5-methyl-triazol-4-yl]methoxy]pyrimidine]",0.171
11,"Cc1cnc(OCc2nnn(-c3ccc(F)c(C(C)(F)F)c3)c2C)nc1C [Example 595, 2-[[1-[3-(1,1-Difluoroethyl)-4-fluoro-phenyl]-5-methyl-triazol-4-yl]methoxy]-4,5-dimethyl-pyrimidine]",0.706
12,"Cc1nc(OCc2nnn(-c3ccc(F)c(C(C)(F)F)c3)c2C)ncc1Cl [Example 596, 5-Chloro-2-[[1-[3-(1,1-difluoroethyl)-4-fluoro-phenyl]-5-methyl-triazol-4-yl]methoxy]-4-methyl-pyrimidine]",0.601
13,"Fc1ccc(-n2cc(COc3ncccn3)nn2)cc1F [Example 597, 2-[[1-(3,4-Difluorophenyl)triazol-4-yl]methoxy]pyrimidine]",2.1
14,"Fc1cnc(OCc2cn(-c3ccc(F)c(F)c3)nn2)nc1 [Example 598, 2-[[1-(3,4-Difluorophenyl)triazol-4-yl]methoxy]-5-fluoro-pyrimidine]",1.45
15,"COc1cnc(OCc2cn(-c3ccc(F)c(F)c3)nn2)nc1 [Example 599, 2-[[1-(3,4-Difluorophenyl)triazol-4-yl]methoxy]-5-methoxy-pyrimidine]",0.034
16,"Fc1ccc(-n2cc(COc3ncc(Cl)cn3)nn2)cc1F [Example 600, 5-Chloro-2-[[1-(3,4-difluorophenyl)triazol-4-yl]methoxy]pyrimidine]",0.238

row,Compound,IC50 [µM]
1,"Cc1cnc(OCc2cn(-c3ccc(F)c(F)c3)nn2)nc1 [Example 601, 2-[[1-(3,4-Difluorophenyl)triazol-4-yl]methoxy]-5-methyl-pyrimidine]",0.048
2,"CCc1cnc(OCc2cn(-c3ccc(F)c(F)c3)nn2)nc1 [Example 602, 2-[[1-(3,4-Difluorophenyl)triazol-4-yl]methoxy]-5-ethyl-pyrimidine]",0.023
3,"Cc1cnc(OCc2cn(-c3cc(F)ccc3F)nn2)nc1 [Example 603, 2-[[1-(2,5-Difluorophenyl)triazol-4-yl]methoxy]-5-methyl-pyrimidine]",10.4
4,"CC(C)(O)c1cnc(OCc2cn(-c3cc(F)ccc3F)nn2)nc1 [Example 604, 2-[2-[[1-(2,5-Difluorophenyl)triazol-4-yl]methoxy]pyrimidin-5-yl]propan-2-ol]",79.7
5,"Fc1cccc(-n2cc(COc3ncc(Cl)cn3)nn2)c1F [Example 605, 5-Chloro-2-[[1-(2,3-difluorophenyl)triazol-4-yl]methoxy]pyrimidine]",4.36
6,"Fc1cnc(OCc2cn(-c3cccc(F)c3F)nn2)nc1 [Example 606, 2-[[1-(2,3-Difluorophenyl)triazol-4-yl]methoxy]-5-fluoro-pyrimidine]",17.5
7,"Fc1cccc(-n2cc(COc3ncccn3)nn2)c1F [Example 607, 2-[[1-(2,3-Difluorophenyl)triazol-4-yl]methoxy]pyrimidine]",3.43
8,"CC(C)(O)c1cnc(OCc2cn(-c3cccc(F)c3F)nn2)nc1 [Example 608, 2-[2-[[1-(2,3-Difluorophenyl)triazol-4-yl]methoxy]pyrimidin-5-yl]propan-2-ol]",> 10
9,"Cc1cnc(OCc2cn(-c3cccc(Cl)c3F)nn2)nc1 [Example 610, 2-[[1-(3-Chloro-2-fluoro-phenyl)triazol-4-yl]methoxy]-5-methyl-pyrimidine]",1.03
10,"Fc1c(Cl)cccc1-n1cc(COc2ncccn2)nn1 [Example 611, 2-[[1-(3-Chloro-2-fluoro-phenyl)triazol-4-yl]methoxy]pyrimidine]",> 10
11,"Fc1c(Cl)cccc1-n1cc(COc2ncc(Cl)cn2)nn1 [Example 612, 5-Chloro-2-[[1-(3-chloro-2-fluoro-phenyl)triazol-4-yl]methoxy]pyrimidine]",1.74
12,"Cc1nc(OCc2cn(-c3cccc(Cl)c3F)nn2)ncc1F [Example 613, 2-[[1-(3-Chloro-2-fluoro-phenyl)triazol-4-yl]methoxy]-5-fluoro-4-methyl-pyrimidine]",1.44
13,"Fc1cnc(OCc2cn(-c3cccc(Cl)c3F)nn2)nc1 [Example 614, 2-[[1-(3-Chloro-2-fluoro-phenyl)triazol-4-yl]methoxy]-5-fluoro-pyrimidine]",4.03
14,"CC(C)(O)c1cnc(OCc2cn(-c3cccc(Cl)c3F)nn2)nc1 [Example 615, 2-[2-[[1-(3-Chloro-2-fluoro-phenyl)triazol-4-yl]methoxy]pyrimidin-5-yl]propan-2-ol]",4.66
15,"OCc1cnc(OCc2cn(-c3ccc(F)c(Br)c3)nn2)nc1 [Example 616, [2-[[1-(3-Bromo-4-fluoro-phenyl)triazol-4-yl]methoxy]pyrimidin-5-yl]methanol]",0.03
16,"OCc1ccnc(OCc2cn(-c3ccc(F)c(Br)c3)nn2)n1 [Example 617, [2-[[1-(3-Bromo-4-fluoro-phenyl)triazol-4-yl]methoxy]pyrimidin-4-yl]methanol]",0.041
